Test results as given in ChEMBL document CHEMBL5055690, “Introducing the Tellurophene-Appended BODIPY: PDT Agent with Mass Cytometry Tracking Capabilities” (ACS Med Chem Lett, 2021).
Active and inactive are the calls of the source. No cut-off for these calls is given here.

Legend:
[1] = Induction of singlet oxygen generation in DMF solution assessed as singlet oxygen quantum yield irradiated with 490 nanometer LED light by DPBF-based assay; type: functional
[2] = test system: HeLa; test: Induction of ROS generation in human HeLa cells at 25 nM measured after 3 hrs by DCFDA staining based flourescence assay; type: cell-based; conditions: 0.025 µM
[3] = test system: HeLa; test: Induction of apoptosis in human HeLa spheroids assessed as cell death at 100 nM preincubated for 3 hrs followed by irradiation with 23.6 milliwolt/cm2 of 525 nanometer laser light for 5 mins and measured after overnight by plate reader assay; type: functional, cell-based; conditions: time 185.0 min
[4] = test system: HeLa; test: Induction of ROS generation in human HeLa cells at 25 nM preincubated for 3 hrs followed by irradiation with 23.6 milliwolt/cm2 of 525 nanometer laser light for 5 mins and measured by DCFDA staining based flourescence method; type: functional, cell-based; conditions: time 185.0 min
[5] = test system: HeLa; test: Induction of apoptosis in human HeLa cells at 1.25 nM preincubated for 3 hrs followed by irradiation with 23.6 milliwolt/cm2 of 525 nanometer laser light for 5 mins and measured after 4 hrs by Annexin V/PI staining based flowcytometry assay; type: functional, cell-based; conditions: time 185.0 min
[6] = Drug uptake in human HeLa cells assessed as drug accumulation at 25 to 1000 nM incubated for 3 hrs under dark condition by […] mass cytometry; type: ADME, cell-based; conditions: 1 µM, dose 25-1000 nM
[7] = test system: HeLa; test: Dark toxicity in human HeLa cells assessed as reduction in cell viability measured after 3 hrs by MTT assay; type: cell-based

Question: Which Activity [1] does the source give for `F[B-]1(F)n2cccc2C(c2ccc(-c3ccc[te]3)cc2)=C2C=CC=[N+]21` here?
Answer: 0.26

Question: And the Activity [2]?
Answer: Non-Toxic

Question: And the Activity [3]?
Answer: Active

Question: What about the Activity [4] of the same compound?
Answer: Active

Question: What about the Activity [5] of the same compound?
Answer: Active

Question: And the Drug uptake [6]?
Answer: Active

Question: And the IC50 [7]?
Answer: 1350 nM
